Source: ChEMBL document CHEMBL3045649, “Green approach towards synthesis of substituted pyrazole-1,4-dihydro,9-oxa,1,2,6,8-tetrazacyclopentano[b]naphthalene-5-one derivatives as antimycobacterial agents” (2013)
Converted amounts (≈) assume the structure as drawn.

What was measured:
Type in all cases: functional
Mycolicibacterium phlei [1] = experiment: Antimycobacterial activity against Mycobacterium phlei NCIM 2240 assessed as growth inhibition at 0.1 mg/ml after 24 hr by agar well diffusion method; conditions: NCIM 2240, 24 h, read-out: DIZ
Mycolicibacterium phlei [2] = experiment: Antimycobacterial activity against Mycobacterium phlei NCIM 2240 assessed as growth inhibition at 1 mg/ml after 24 hr by agar well diffusion method; conditions: NCIM 2240, 24 h, read-out: DIZ
[3] = system: Mycolicibacterium smegmatis; experiment: Antimycobacterial activity against Mycobacterium smegmatis NCIM 5138 assessed as growth inhibition at 1 mg/ml after 24 hr by agar well diffusion method; conditions: NCIM 5138, 24 h, read-out: DIZ
Mycolicibacterium phlei [4] = experiment: Antimycobacterial activity against Mycobacterium phlei NCIM 2240 assessed as growth inhibition after 24 hr by agar well diffusion method; conditions: NCIM 2240, 24 h
[5] = system: Mycolicibacterium smegmatis; experiment: Antimycobacterial activity against Mycobacterium smegmatis NCIM 5138 assessed as growth inhibition at 0.5 mg/ml after 24 hr by agar well diffusion method; conditions: NCIM 5138, 24 h, read-out: DIZ
Mycolicibacterium phlei [6] = experiment: Antimycobacterial activity against Mycobacterium phlei NCIM 2240 assessed as growth inhibition at 0.5 mg/ml after 24 hr by agar well diffusion method; conditions: NCIM 2240, 24 h, read-out: DIZ
[7] = system: Mycolicibacterium smegmatis; experiment: Antimycobacterial activity against Mycobacterium smegmatis NCIM 5138 assessed as growth inhibition after 24 hr by agar well diffusion method; conditions: NCIM 5138, 24 h
[8] = system: Mycolicibacterium smegmatis; experiment: Antimycobacterial activity against Mycobacterium smegmatis NCIM 5138 assessed as growth inhibition at 0.1 mg/ml after 24 hr by agar well diffusion method; conditions: NCIM 5138, 24 h, read-out: DIZ
[9] = system: Mycobacterium tuberculosis; experiment: Antimycobacterial activity against Mycobacterium tuberculosis MTCC 300 assessed as growth inhibition after 24 hr by agar well diffusion method; conditions: MTCC 300, 24 h
[10] = system: Mycobacterium tuberculosis; experiment: Antimycobacterial activity against Mycobacterium tuberculosis MTCC 300 assessed as growth inhibition at 1 mg/ml after 24 hr by agar well diffusion method; conditions: MTCC 300, 24 h, read-out: DIZ
[11] = system: Mycobacterium tuberculosis; experiment: Antimycobacterial activity against Mycobacterium tuberculosis MTCC 300 assessed as growth inhibition at 0.5 mg/ml after 24 hr by agar well diffusion method; conditions: MTCC 300, 24 h, read-out: DIZ
[12] = system: Mycobacterium tuberculosis; experiment: Antimycobacterial activity against Mycobacterium tuberculosis MTCC 300 assessed as growth inhibition at 0.1 mg/ml after 24 hr by agar well diffusion method; conditions: MTCC 300, 24 h, read-out: DIZ

| Structure (SMILES) | zone of inhibition at 100 µg/mL (Mycolicibacterium phlei [1]) [mm] | zone of inhibition at 1000 µg/mL (Mycolicibacterium phlei [2]) [mm] | zone of inhibition at 1000 µg/mL [3] [mm] | MIC (Mycolicibacterium phlei [4]) [µg/mL] | zone of inhibition at 500 µg/mL [5] [mm] | zone of inhibition at 500 µg/mL (Mycolicibacterium phlei [6]) [mm] | MIC [7] [µg/mL] | zone of inhibition at 100 µg/mL [8] [mm] | MIC [9] [µg/mL] | zone of inhibition at 1000 µg/mL [10] [mm] | zone of inhibition at 500 µg/mL [11] [mm] | zone of inhibition at 100 µg/mL [12] [mm] |
| --- | --- | --- | --- | --- | --- | --- | --- | --- | --- | --- | --- | --- |
| Cc1nn(-c2ccccc2)c2c1C(c1cn(-c3ccccc3)nc1-c1ccc(Cl)cc1)C1=C(NC(C)(c3ccc(O)cc3O)NC1=O)O2 (stereo not given) | 2.5 | 4.5 | 3.2 | 70 (≈ 107 µM) | 1.9 | 3.8 | 100 (≈ 152 µM) | 1.6 |  |  |  |  |
| COc1ccc(-c2nn(-c3ccccc3)cc2C2C3=C(NC(C)(c4cc(Cl)ccc4O)NC3=O)Oc3c2c(C)nn3-c2ccccc2)cc1 (stereo not given) |  | 2 | 5.2 | 1000 (≈ 1490 µM) | 4.2 |  | 90 (≈ 134 µM) | 2.8 |  |  |  |  |
| Cc1nn(-c2ccccc2)c2c1C(c1cn(-c3ccccc3)nc1-c1ccc(Cl)cc1)C1=C(NC(C)(c3ccc(O)c(Cl)c3O)NC1=O)O2 (stereo not given) | 2.5 | 6.5 | 6.8 | 90 (≈ 130 µM) | 5.2 | 4 | 70 (≈ 101 µM) | 3.8 | 1000 (≈ 1450 µM) | 1.5 |  |  |
| Cc1nn(-c2ccccc2)c2c1C(c1cn(-c3ccccc3)nc1-c1ccc(F)cc1)C1=C(NC(C)(c3ccc(O)cc3O)NC1=O)O2 (stereo not given) |  | 2.2 | 6.5 | 50 (≈ 78 µM) | 5.5 | 1.5 | 40 (≈ 62.4 µM) | 4.1 |  |  |  |  |
| Cc1nn(-c2ccccc2)c2c1C(c1cn(-c3ccccc3)nc1-c1ccc(F)cc1)C1=C(NC(C)(c3ccc(O)c(Cl)c3O)NC1=O)O2 (stereo not given) | 3.4 | 2.5 | 11.5 | 50 (≈ 74.1 µM) | 7.6 | 1.5 | 70 (≈ 104 µM) | 4.5 | 1000 (≈ 1480 µM) | 2 |  |  |
| Cc1nn(-c2ccccc2)c2c1C(c1cn(-c3ccccc3)nc1-c1ccc(Cl)cc1)C1=C(NC(C)(c3cc(Cl)cc(I)c3O)NC1=O)O2 (stereo not given) |  | 2.8 | 5.4 | 50 (≈ 62.4 µM) | 5 | 1.5 | 70 (≈ 87.3 µM) | 4.2 |  |  |  |  |
| Cc1nn(-c2ccccc2)c2c1C(c1cn(-c3ccccc3)nc1-c1ccc(F)cc1)C1=C(NC(C)(c3cc(Cl)ccc3O)NC1=O)O2 (stereo not given) |  |  | 3.2 |  | 2.2 |  | 100 (≈ 152 µM) | 1.9 |  |  |  |  |
| CO[C@H]1/C=C/O[C@@]2(C)Oc3c(C)c(O)c4c(O)c(c(/C=N/N5CCN(C)CC5)c(O)c4c3C2=O)NC(=O)/C(C)=C\C=C\[C@H](C)[C@H](O)[C@@H](C)[C@@H](O)[C@@H](C)[C@H](OC(C)=O)[C@@H]1C [RIFAMPIN] |  |  |  | 40 (≈ 48.6 µM) |  |  | 480 (≈ 583 µM) |  | 280 (≈ 340 µM) |  |  |  |
| Cc1nn(-c2ccccc2)c2c1C(c1cn(-c3ccccc3)nc1-c1ccc(F)cc1)C1=C(NC(C)(c3cc(Cl)cc(I)c3O)NC1=O)O2 (stereo not given) | 5.8 | 8.6 | 12 | 60 (≈ 76.4 µM) | 9 | 7.1 | 60 (≈ 76.4 µM) | 5.6 |  |  |  |  |
| Cc1nn(-c2ccccc2)c2c1C(c1cn(-c3ccccc3)nc1-c1ccc(Cl)cc1)C1=C(NC(C)(c3cc(Cl)ccc3O)NC1=O)O2 (stereo not given) | 2 | 3.5 | 3.6 | 100 (≈ 148 µM) | 2.3 | 2.4 | 100 (≈ 148 µM) | 1.5 | 1000 (≈ 1480 µM) | 1.9 |  |  |
| COc1ccc(-c2nn(-c3ccccc3)cc2C2C3=C(NC(C)(c4cc(Cl)cc(I)c4O)NC3=O)Oc3c2c(C)nn3-c2ccccc2)cc1 (stereo not given) | 4 | 8.8 | 12 | 70 (≈ 87.8 µM) | 10.8 | 6.2 | 50 (≈ 62.7 µM) | 8 | 100 (≈ 125 µM) | 3.6 | 2.5 | 2 |
